Experiment [1] has as its target T1, Sentrin-specific protease 7 (Homo sapiens, UniProt Q9BQF6).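 Also: Luminescence-based dose-response confirmation of ultra-high-throughput screening hits, measuring inhibition of SENP7.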
T1 sequence (Q9BQF6 whole entry): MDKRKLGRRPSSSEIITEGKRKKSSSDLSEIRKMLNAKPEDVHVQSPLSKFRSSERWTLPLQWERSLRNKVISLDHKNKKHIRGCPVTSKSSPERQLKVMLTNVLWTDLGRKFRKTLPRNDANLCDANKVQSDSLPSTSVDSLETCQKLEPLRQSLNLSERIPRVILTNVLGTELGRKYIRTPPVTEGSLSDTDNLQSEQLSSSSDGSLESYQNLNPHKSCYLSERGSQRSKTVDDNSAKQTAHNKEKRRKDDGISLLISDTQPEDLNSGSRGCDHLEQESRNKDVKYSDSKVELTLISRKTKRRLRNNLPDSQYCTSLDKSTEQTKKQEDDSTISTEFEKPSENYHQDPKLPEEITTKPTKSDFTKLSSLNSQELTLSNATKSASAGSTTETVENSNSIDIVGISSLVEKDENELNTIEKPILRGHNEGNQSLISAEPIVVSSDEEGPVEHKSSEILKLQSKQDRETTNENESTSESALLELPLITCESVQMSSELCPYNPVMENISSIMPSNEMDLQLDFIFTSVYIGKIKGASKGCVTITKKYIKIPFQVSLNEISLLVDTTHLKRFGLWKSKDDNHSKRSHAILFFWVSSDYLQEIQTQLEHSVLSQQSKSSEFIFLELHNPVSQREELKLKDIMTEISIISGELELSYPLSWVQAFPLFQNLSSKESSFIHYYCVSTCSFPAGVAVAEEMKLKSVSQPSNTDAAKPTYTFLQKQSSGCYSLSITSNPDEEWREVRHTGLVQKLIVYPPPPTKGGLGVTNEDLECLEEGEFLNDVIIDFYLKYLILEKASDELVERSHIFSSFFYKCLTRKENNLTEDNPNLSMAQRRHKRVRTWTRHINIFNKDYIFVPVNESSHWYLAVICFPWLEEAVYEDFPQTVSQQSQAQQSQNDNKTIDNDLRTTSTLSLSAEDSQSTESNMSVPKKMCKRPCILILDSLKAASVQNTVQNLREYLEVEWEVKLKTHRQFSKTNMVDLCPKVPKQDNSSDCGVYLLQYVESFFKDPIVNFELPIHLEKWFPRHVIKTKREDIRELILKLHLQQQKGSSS
It is filed as functional.

The target in experiment [2] is T2, Mannose-6-phosphate isomerase (Homo sapiens, UniProt P34949).
T2 sequence (P34949 whole entry): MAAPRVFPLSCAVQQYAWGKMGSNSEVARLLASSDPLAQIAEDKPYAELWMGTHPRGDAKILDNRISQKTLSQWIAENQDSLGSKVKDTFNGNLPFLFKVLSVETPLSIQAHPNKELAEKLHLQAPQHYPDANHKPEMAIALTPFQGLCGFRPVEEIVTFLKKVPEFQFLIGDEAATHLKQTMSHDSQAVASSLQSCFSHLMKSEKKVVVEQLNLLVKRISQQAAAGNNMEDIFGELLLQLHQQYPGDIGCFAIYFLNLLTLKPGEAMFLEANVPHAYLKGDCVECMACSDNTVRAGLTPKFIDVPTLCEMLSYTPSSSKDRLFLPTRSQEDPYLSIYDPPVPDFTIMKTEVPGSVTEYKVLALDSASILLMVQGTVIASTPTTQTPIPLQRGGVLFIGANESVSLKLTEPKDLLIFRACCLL
Put plainly: MPI enzyme activity inhibition – biochemical, fluorescence intensity, coupled assay, primary screen (AID 1209).

For experiment [3], the target named is Tyrosine-protein kinase SYK (Homo sapiens, UniProt P43405). It counts as functional.
The target of experiment [4] is STE20-like serine/threonine-protein kinase (Homo sapiens, UniProt Q9H2G2). It counts as functional.
In experiment [5] the target is Protein-tyrosine kinase 6 (Homo sapiens, UniProt Q13882). It counts as functional.
In experiment [6] the target is Cyclin-dependent kinase 2 (Homo sapiens, UniProt P24941). It is filed as functional.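 Also: CDK2 measured as one member of a broad kinome profiling panel.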
For experiment [7], the target named is Homeodomain-interacting protein kinase 2 (Homo sapiens, UniProt Q9H2X6). It is filed as functional.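 Also: measured within a kinome-wide kinase profiling panel, HIPK2 being one panel member.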
The target of experiment [8] is Mitogen-activated protein kinase kinase kinase kinase 5 (Homo sapiens, UniProt Q9Y4K4). It counts as functional.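 Also: measured as one member of a kinome-spanning kinase panel.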
Experiment [9] has as its target Serine/threonine-protein kinase Chk2 (Homo sapiens, UniProt O96017). It is filed as functional.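 Also: CHEK2 entry within a kinome-wide screening panel.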
The target in experiment [10] is Testis-specific serine/threonine-protein kinase 2 (Homo sapiens, UniProt Q96PF2). It counts as functional.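 Also: part of the Navigating the Kinome panel, target entry STK22B.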
In another experiment the target is SRSF protein kinase 1 (Homo sapiens, UniProt Q96SB4). It counts as functional.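 Also: measured as one member of a kinome-wide kinase profiling panel.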
Experiment [11] has as its target Vascular endothelial growth factor receptor 3 (Homo sapiens, UniProt P35916). It is filed as functional.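 Also: value from a kinome-wide profiling panel, with FLT4 as the panel member.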
In experiment [12] the target is Serine/threonine-protein kinase pim-3 (Homo sapiens, UniProt Q86V86). It counts as functional.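 Also: value obtained as one member of a broad kinase panel profiling effort.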
Experiment [13] has as its target Casein kinase I isoform gamma-1 (Homo sapiens, UniProt Q9HCP0). It is filed as functional.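 Also: measured as the CSNK1G1 member of a kinome profiling panel.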
In experiment [14] the target is Ribosomal protein S6 kinase alpha-5 (Homo sapiens, UniProt O75582). It counts as functional.
Experiment [15] concerns the target Eukaryotic elongation factor 2 kinase (Homo sapiens, UniProt O00418). It is filed as functional.
Experiment [16] deals with Mitogen-activated protein kinase kinase kinase 20 (Homo sapiens, UniProt Q9NYL2). It is filed as functional.
Experiment [17] deals with Inhibitor of nuclear factor kappa-B kinase subunit epsilon (Homo sapiens, UniProt Q14164). Put plainly: Navigating the Kinome. Panel member name: IKBKE. It counts as functional.
Experiment [18] addresses Dual specificity tyrosine-phosphorylation-regulated kinase 1B (Homo sapiens, UniProt Q9Y463). As to the kind of experiment: Navigating the Kinome. Panel member name: DYRK1B. It is filed as functional.
Experiment [19] addresses Protein kinase C theta type (Homo sapiens, UniProt Q04759). As to the kind of experiment: Navigating the Kinome. Panel member name: PRKCQ. It is filed as functional.
Experiment [20] has as its target Hepatocyte growth factor receptor (Homo sapiens, UniProt P08581). It is filed as functional.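 Also: kinase panel profiling across the kinome, with MET as the panel member.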

The structures appear in SMILES notation. The source made the active and inactive calls.

Consider 3 molecules from ChEMBL document CHEMBL1201862, “PubChem BioAssay data set” (2004).

A word on the IC50: it is the concentration at which inhibition is half-maximal. The Ki is a measure of affinity in units of concentration, obtained from inhibition or displacement.

Sequence of Mitogen-activated protein kinase kinase kinase kinase 5 (Q9Y4K4 whole entry): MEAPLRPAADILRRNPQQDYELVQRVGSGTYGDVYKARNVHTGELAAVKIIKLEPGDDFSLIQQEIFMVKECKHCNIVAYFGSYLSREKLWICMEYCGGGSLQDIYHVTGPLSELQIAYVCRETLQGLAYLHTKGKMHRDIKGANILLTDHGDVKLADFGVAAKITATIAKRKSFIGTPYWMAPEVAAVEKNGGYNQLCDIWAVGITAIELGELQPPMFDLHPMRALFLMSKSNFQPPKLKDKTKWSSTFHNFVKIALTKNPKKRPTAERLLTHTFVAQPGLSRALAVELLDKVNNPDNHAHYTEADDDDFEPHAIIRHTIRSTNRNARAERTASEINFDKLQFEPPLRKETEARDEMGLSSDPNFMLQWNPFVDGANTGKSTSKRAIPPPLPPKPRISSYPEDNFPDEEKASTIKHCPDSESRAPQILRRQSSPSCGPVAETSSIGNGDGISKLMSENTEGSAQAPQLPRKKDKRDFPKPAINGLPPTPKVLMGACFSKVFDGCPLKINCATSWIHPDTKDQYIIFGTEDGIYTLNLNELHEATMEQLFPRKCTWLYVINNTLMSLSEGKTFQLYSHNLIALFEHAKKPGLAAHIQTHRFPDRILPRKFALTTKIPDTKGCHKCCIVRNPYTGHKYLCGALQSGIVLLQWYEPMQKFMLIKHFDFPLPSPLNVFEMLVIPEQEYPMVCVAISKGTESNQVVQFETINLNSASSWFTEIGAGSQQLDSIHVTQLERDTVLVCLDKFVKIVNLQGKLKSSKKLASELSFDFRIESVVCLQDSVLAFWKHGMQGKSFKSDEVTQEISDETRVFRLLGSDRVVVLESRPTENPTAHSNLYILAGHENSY
Sequence of Protein kinase C theta type (Q04759 whole entry): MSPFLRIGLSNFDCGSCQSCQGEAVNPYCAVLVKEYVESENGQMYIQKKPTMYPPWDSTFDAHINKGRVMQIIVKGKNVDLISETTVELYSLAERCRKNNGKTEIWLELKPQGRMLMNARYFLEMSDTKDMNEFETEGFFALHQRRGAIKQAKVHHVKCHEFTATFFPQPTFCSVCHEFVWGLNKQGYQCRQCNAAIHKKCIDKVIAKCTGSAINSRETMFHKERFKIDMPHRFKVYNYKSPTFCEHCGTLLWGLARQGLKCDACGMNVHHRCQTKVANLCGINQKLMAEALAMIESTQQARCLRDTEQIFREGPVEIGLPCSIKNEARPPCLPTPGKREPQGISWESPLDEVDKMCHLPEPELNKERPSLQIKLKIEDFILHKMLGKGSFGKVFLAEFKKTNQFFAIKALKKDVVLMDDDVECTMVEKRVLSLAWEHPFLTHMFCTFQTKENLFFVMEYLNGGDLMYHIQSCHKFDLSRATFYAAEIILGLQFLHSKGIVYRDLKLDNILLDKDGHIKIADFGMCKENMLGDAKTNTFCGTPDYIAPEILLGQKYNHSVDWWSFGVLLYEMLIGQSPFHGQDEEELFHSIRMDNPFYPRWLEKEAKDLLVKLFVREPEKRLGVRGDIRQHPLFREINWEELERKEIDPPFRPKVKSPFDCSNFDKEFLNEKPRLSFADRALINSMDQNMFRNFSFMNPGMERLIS
Sequence of SRSF protein kinase 1 (Q96SB4 whole entry): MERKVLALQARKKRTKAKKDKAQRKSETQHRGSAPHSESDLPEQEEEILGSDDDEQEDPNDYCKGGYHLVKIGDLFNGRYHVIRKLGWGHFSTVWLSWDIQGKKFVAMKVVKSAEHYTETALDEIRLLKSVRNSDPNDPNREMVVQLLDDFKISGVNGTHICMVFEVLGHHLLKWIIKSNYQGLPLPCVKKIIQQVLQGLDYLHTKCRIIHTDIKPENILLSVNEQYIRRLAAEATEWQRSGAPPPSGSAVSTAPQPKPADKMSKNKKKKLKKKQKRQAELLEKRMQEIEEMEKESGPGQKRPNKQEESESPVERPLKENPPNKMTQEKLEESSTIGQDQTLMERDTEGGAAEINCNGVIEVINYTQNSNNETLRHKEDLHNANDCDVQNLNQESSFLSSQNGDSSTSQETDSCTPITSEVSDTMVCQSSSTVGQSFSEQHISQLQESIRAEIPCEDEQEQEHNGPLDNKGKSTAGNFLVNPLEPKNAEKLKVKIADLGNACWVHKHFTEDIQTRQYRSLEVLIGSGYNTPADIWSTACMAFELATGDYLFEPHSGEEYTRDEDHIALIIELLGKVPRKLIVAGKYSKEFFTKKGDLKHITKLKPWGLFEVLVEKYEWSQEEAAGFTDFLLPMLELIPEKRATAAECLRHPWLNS
Sequence of Hepatocyte growth factor receptor (P08581 whole entry): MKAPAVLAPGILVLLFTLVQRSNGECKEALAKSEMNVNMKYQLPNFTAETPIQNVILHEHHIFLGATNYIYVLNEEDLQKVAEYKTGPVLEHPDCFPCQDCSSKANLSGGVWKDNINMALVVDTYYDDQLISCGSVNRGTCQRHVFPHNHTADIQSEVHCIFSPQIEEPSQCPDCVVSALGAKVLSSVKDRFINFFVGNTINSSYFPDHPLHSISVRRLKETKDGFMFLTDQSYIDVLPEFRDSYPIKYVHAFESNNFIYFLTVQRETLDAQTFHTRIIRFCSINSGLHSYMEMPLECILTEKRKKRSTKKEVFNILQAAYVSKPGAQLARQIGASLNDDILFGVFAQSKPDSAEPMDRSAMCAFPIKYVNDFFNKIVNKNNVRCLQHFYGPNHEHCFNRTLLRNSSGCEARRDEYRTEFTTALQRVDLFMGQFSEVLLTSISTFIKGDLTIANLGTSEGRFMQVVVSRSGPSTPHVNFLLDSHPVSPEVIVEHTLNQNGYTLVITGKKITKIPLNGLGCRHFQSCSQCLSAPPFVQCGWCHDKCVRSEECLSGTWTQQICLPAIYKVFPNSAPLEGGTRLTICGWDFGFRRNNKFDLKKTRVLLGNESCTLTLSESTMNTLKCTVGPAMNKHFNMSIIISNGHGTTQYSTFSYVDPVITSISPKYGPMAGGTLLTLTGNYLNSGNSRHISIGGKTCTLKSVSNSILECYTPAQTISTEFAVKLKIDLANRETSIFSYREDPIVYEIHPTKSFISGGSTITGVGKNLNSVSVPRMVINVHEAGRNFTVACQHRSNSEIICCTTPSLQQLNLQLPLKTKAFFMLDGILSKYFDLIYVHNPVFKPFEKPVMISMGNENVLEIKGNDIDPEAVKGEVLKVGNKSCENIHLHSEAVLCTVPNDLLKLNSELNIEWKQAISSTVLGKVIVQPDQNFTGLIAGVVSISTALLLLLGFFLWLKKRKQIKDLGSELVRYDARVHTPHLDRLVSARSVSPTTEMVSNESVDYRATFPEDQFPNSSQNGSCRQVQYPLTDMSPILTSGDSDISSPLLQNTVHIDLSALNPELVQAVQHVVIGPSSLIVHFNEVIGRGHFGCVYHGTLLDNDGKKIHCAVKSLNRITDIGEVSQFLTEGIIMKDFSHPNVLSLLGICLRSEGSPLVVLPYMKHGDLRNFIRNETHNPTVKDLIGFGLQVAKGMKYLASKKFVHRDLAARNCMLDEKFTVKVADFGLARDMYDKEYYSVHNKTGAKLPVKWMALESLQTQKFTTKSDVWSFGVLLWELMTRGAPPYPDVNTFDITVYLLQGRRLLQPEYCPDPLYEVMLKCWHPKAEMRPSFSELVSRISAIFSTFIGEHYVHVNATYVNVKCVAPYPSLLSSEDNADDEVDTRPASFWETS
Sequence of Testis-specific serine/threonine-protein kinase 2 (Q96PF2 whole entry): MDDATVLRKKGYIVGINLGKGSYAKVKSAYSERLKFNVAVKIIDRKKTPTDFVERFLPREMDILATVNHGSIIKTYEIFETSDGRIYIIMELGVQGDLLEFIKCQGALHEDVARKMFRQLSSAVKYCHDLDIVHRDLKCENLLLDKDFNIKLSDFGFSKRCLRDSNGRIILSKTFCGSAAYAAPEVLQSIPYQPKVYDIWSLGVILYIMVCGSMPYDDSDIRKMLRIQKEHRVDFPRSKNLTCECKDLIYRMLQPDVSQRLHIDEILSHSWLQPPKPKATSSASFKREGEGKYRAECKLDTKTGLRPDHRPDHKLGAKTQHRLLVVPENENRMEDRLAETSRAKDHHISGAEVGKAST
Sequence of Eukaryotic elongation factor 2 kinase (O00418 whole entry): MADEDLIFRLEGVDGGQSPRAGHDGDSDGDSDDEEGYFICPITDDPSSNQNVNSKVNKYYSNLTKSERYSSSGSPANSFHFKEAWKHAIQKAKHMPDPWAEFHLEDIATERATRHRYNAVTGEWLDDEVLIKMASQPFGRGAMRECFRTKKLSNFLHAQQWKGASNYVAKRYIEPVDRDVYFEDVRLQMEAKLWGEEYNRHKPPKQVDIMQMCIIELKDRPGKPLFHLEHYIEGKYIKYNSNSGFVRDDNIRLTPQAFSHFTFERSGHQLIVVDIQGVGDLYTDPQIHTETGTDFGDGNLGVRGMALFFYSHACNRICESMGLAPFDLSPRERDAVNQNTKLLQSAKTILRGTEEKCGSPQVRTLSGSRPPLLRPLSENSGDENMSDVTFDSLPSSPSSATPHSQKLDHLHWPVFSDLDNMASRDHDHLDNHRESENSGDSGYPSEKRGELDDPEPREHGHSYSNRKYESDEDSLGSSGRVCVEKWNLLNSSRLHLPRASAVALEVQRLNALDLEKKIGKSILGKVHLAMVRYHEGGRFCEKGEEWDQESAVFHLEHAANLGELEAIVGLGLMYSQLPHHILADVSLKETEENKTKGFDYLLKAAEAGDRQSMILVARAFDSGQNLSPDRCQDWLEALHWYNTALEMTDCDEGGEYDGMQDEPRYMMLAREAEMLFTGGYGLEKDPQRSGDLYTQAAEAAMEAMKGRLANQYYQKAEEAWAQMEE

In the case of `COc1ccc(-n2c(NC(=O)c3ccco3)c(C#N)c3nc4ccccc4nc32)cc1`, the IC50 in experiment [1] was 5780 nM (active); in experiment [2], > 50000 nM (not active).
For the molecule `Cc1n[nH]c2ccc(-c3cncc(OCC(N)Cc4ccc(Cl)c(Cl)c4)c3)cc12` (stereo unspecified), the Ki in experiment [3] was > 1580 nM (inactive); in experiment [4], 1580 nM (active); in experiment [5], > 2510 nM (inactive); in experiment [6], 25.1 nM (active); in experiment [7], 126 nM (active); in [8], 158 nM (active). In addition, the Ki is 398 nM (active) in experiment [9]; > 1580 nM (inactive) in experiment [10]; > 5010 nM (inactive) on SRSF protein kinase 1; 1580 nM (active) in [11]; 15.8 nM (active) in [12]; 126 nM (active) in [13]. Moreover, the Ki in experiment [14] was 1.26 nM (active); in [15], 3160 nM (active); in experiment [16], 7940 nM (active).
Consider `[2H]C([2H])([2H])Oc1cccc(C(C)NC(=O)c2sc(-c3ccncc3)nc2C)c1` (stereo unspecified), for which the Ki was > 3160 nM (inactive) in [17], > 2510 nM (inactive) in experiment [18], > 2510 nM (inactive) in experiment [19] and > 2510 nM (inactive) in [20].
